Data on twelve compounds can be found in US20240336606A1 (Suzhou Zelgen Biopharmaceuticals Co., Ltd., priority 2020, published 2024).

For this experiment, the target named is T1, binding of KRAS^G12C to SOS1 (Homo sapiens, UniProt Q07889).
T1 construct: Tag1 (unspecified)
T1 sequence (Q07889 1-1333): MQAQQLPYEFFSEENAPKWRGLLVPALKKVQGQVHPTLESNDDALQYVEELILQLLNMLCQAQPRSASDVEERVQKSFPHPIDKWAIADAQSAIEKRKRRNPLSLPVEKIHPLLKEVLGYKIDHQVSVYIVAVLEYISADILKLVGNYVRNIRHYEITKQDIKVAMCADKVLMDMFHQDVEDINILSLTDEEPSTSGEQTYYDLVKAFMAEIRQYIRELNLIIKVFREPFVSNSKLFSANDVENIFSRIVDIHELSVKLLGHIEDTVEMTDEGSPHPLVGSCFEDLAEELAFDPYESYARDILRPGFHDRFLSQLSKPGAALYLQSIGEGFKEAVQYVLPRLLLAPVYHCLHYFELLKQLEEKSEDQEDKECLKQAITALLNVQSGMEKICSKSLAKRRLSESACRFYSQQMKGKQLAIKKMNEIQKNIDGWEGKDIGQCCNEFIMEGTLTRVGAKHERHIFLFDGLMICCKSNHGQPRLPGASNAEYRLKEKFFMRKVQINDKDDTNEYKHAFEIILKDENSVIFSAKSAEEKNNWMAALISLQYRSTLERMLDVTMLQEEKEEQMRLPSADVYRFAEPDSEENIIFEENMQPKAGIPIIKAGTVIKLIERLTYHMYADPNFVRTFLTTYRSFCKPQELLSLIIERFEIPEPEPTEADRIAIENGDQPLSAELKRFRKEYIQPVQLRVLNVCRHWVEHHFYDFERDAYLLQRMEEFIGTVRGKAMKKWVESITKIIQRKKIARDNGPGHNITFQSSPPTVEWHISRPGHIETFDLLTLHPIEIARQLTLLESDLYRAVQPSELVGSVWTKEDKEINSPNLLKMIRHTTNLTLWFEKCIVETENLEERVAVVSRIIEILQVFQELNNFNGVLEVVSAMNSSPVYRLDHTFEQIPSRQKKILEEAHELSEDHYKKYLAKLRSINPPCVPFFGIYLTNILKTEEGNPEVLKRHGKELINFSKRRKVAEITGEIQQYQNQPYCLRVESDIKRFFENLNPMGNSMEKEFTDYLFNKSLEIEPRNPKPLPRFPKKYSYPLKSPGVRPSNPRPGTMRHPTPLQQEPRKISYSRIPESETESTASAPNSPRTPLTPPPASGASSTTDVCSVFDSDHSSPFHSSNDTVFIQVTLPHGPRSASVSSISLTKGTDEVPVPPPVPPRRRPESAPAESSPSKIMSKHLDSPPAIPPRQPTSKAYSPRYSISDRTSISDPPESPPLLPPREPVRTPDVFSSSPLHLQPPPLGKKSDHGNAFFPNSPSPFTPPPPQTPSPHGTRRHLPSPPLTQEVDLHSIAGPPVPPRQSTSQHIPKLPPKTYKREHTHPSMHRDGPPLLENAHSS
The experiment in a line: Inhibition of the binding of KRAS^G12C to SOS1. The note with it: Tag1-SOS1 / Tag2-KRAS^G12C, 2 h incubation at room temperature; read-out: IC50 (nM), inhibitory activity on the binding of KRAS^G12C to SOS1. As to the method: • (1) Gradient dilution of the test compounds: 10 mM mother solution (dissolved in 100% DMSO) was added to a 384-well test plate, the final content of DMSO being 0.25%.
(2) 5 μL of Tag1-SOS1 solution was added to the test plate, and 5 μL of dilution buffer was added to the control group.
(3) 5 μL of Tag2-KRAS^G12C solution was added to the test plate.
(4) 10 μL of Anti-Tag1-Tb3+ and Anti-Tag2-XL665 detection solution were added to the test plate. The plate was centrifuged at 1000 rpm for 1 min and incubated at room temperature for 2 h.
(6) The IC50 values for the compounds were finally calculated using GraphPad Prism software, and a curve was fit and plotted.
The inhibitory activity of the compounds of the examples of the present invention on the binding of KRAS^G12C enzyme to SOS1 is shown in Table 1.
As for `COc1cc2nc(C)nc(N[C@H](C)c3cccc(C(F)(F)C(C)(C)O)c3F)c2cc1OCCN(C)S(C)(=O)=O` [Example 33, (R)—N-(2-((4-((1-(3-(1,1-Difluoro-2-hydroxy-2-methylpropyl)-2-fluorophenyl)ethyl)amino)-7-methoxy-2-methylquinazolin-6-yl)oxy)ethyl)-N-methylmethanesulfonamide], the IC50 stood at 7.5 nM. For the compound `COc1cc2nc(C)nc(N[C@H](C)c3cc(N)cc(C(F)(F)F)c3)c2cc1OCC1(N(C)C)CC1` [Example 34, (R)—N-(1-(3-Amino-5-(trifluoromethyl)phenyl)ethyl)-6-((1-(dimethylamino)cyclopropyl)methoxy)-7-methoxy-2-methylquinazolin-4-amine], the IC50 was determined as 5.4 nM.

Regarding `COc1cc2nc(C)nc(N[C@H](C)c3cc(N)cc(C(F)(F)F)c3F)c2cc1OCCOC1CC1` [Example 35, (R)—N-(1-(5-Amino-2-fluoro-3-(trifluoromethyl)phenyl)ethyl)-6-(2-cyclopropoxyethyloxy)-7-methoxy-2-methylquinazolin-4-amine], the concentration for half-maximal inhibition (IC50) stood at 17 nM. As to `COc1cc2nc(C)nc(N[C@H](C)c3cc(C(F)(F)F)ccn3)c2cc1OCCOC1CC1` [Example 36, (R)-6-(2-Cyclopropoxyethyloxy)-7-methoxy-2-methyl-N-(1-(4-(trifluoromethyl)pyridin-2-yl)ethyl)quinazolin-4-amine], the IC50 was above 1000 nM. With `COc1cc2nc(C)nc(N[C@H](C)c3cc(C(F)(F)F)cc(N)n3)c2cc1OCCOC1CC1` [Example 38, (R)—N-(1-(6-Amino-4-(trifluoromethyl)pyridin-2-yl)ethyl)-6-(2-cyclopropoxyethyloxy)-7-m ethoxy-2-methylquinazolin-4-amine], the IC50 came to 33 nM. On to `COc1cc2nc(C)nc(N[C@H](C)c3cc(N)cc(C(F)(F)F)c3)c2cc1OC[C@@H]1CCCO1` [Example 39, N—((R)-1-(3-Amino-5-(trifluoromethyl)phenyl)ethyl)-7-methoxy-2-methyl-6-(((S)-tetrahydrofuran-2-yl)methoxy)quinazolin-4-amine], for which the IC50 stood at 21 nM. The same measure for `COc1cc2nc(C)nc(N[C@H](C)c3cc(N)cc(C(F)(F)F)c3)c2cc1OC[C@H]1CCCO1` [Example 40, N—((R)-1-(3-Amino-5-(trifluoromethyl)phenyl)ethyl)-7-methoxy-2-methyl-6-(((R)-tetrahydrofuran-2-yl)methoxy)quinazolin-4-amine]: 8.2 nM; for `COc1cc2nc(C)nc(N[C@H](C)c3cc(N)nc(C(F)(F)F)c3)c2cc1OCCOC1CC1` [Example 41, (R)—N-(1-(2-Amino-6-(trifluoromethyl)pyridin-4-yl)ethyl)-6-(2-cyclopropoxyethoxy)-7-met hoxy-2-methylquinazolin-4-amine]: 252 nM; for `COCCOc1cc2c(N[C@H](C)c3cc(N)cc(C(F)(F)F)c3)nc(C)nc2cc1OC` [Example 42, (R)—N-(1-(3-Amino-5-(trifluoromethyl)phenyl)ethyl)-7-methoxy-6-(2-methoxyethoxy)-2-me thylquinazolin-4-amine]: 5.6 nM.

As for `COCC1(COc2cc3c(N[C@H](C)c4cc(N)cc(C(F)(F)F)c4)nc(C)nc3cc2OC)COC1` [Example 43, (R)—N-(1-(3-Amino-5-(trifluoromethyl)phenyl)ethyl)-7-methoxy-6-((3-(methoxymethyl)oxetan-3-yl)methoxy)-2-methylquinazolin-4-amine], the IC50 amounted to 5.2 nM. The same measure for `Cc1nc(N[C@H](C)c2cc(N)cc(C(F)(F)F)c2)c2cc(OCCOC3CC3)c(C(F)(F)F)cc2n1` [Example 45, (R)—N-(1-(3-Amino-5-(trifluoromethyl)phenyl)ethyl)-6-(2-cyclopropoxyethoxy)-2-methyl-7-(trifluoromethyl)quinazolin-4-amine]: 167 nM; for `COc1cc2nc(C)nc(N[C@H](C)c3cc(N)cc(C(F)(F)F)c3)c2cc1OCC1(OC)CC1` [Example 46, (R)—N-(1-(3-Amino-5-(trifluoromethyl)phenyl)ethyl)-7-methoxy-6-((1-methoxycyclopropyl)methoxy)-2-methylquinazolin-4-amine]: 10 nM.

The IC50 is the midpoint of a concentration-inhibition curve.
